pKi: −log10 of the molar value.

Chain of GST-tagged-Wee1 kinase (P30291 whole entry): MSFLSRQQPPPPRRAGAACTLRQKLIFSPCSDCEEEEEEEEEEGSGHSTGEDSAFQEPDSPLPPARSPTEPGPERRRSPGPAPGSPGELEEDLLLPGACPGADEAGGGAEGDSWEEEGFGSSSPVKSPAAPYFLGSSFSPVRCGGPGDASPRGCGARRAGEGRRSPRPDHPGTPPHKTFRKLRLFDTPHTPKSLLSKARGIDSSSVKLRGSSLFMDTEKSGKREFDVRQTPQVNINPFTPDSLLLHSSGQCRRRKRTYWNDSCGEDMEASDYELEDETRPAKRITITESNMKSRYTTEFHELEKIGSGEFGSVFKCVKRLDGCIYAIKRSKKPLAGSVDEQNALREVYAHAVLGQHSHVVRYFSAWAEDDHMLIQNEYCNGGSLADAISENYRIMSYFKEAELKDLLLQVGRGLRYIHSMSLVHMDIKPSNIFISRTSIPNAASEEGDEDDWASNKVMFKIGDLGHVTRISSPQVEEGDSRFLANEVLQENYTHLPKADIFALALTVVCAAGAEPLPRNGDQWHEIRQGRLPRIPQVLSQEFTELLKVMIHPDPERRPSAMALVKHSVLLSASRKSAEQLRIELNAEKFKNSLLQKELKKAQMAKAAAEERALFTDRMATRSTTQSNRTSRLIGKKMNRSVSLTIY

The assay addresses GST-tagged-Wee1 kinase (Homo sapiens, UniProt P30291). As to the kind of experiment: Wee1 time-resolved fluorescence equilibrium binding assay (displacement of Oregon Green-labeled ATP-competitive kinase probe). The protocol:
Wee1 kinase was assayed using a time-resolved fluorescence equilibrium binding assay monitoring displacement of a rapidly reversible Oregon Green-labeled ATP-competitive kinase probe (N-(2-(2-(2-(4-(4-(5-chloro-4-(2-(1-hydroxycyclobutyl)thiazol-5-yl)-1H-pyrrolo[2,3-b]pyridin-2-yl)phenyl)piperazin-1-yl)ethoxy)ethoxy)ethyl)-2′,7′-difluoro-3′,6′-dihydroxy-3-oxo-3H-spiro[isobenzofuran-1,9′-xanthene]-5-carboxamide) by competitive Wee1 inhibitors.
Consider `CC1(C)CNCc2cc(Nc3ncc4c(=O)n(-c5c(Cl)cccc5Cl)nc(-c5ccccn5)c4n3)ccc21` [Example 263, 6-(2,6-dichlorophenyl)-2-[(4,4-dimethyl-1,2,3,4-tetrahydroisoquinolin-7-yl)amino]-8-(pyridin-2-yl)pyrimido[4,5-d]pyridazin-5(6H)-one], for which the pKi was 9.52.
`CC1(C)CNCc2cc(Nc3ncc4c(=O)n(-c5ccccn5)nc(-c5ccccn5)c4n3)ccc21` [Example 264, 2-[(4,4-dimethyl-1,2,3,4-tetrahydroisoquinolin-7-yl)amino]-6,8-di(pyridin-2-yl)pyrimido[4,5-d]pyridazin-5(6H)-one]: the pKi was 7.92.
Under `O=c1c2cnc(Nc3ccc(N4CCNCC4)cc3)nc2c(-c2ccccn2)nn1CCO` [Example 267, 6-(2-hydroxyethyl)-2-{[4-(piperazin-1-yl)phenyl]amino}-8-(pyridin-2-yl)pyrimido[4,5-d]pyridazin-5(6H)-one] stands 6.62; under `COCn1ccc(-c2nn(-c3c(Cl)cccc3Cl)c(=O)c3cnc(Nc4ccc(N5CCN(C)CC5)cc4)nc23)n1` [Example 268, 6-(2,6-dichlorophenyl)-8-[1-(methoxymethyl)-1H-pyrazol-3-yl]-2-{[4-(4-methylpiperazin-1-yl)phenyl]amino}pyrimido[4,5-d]pyridazin-5(6H)-one], 10.00; under `C=CCn1nc(-c2ccco2)c2nc(Nc3ccc(N4CCCC4=O)cc3)ncc2c1=O` [Example 269, 8-(furan-2-yl)-2-{[4-(2-oxopyrrolidin-1-yl)phenyl]amino}-6-(prop-2-en-1-yl)pyrimido[4,5-d]pyridazin-5(6H)-one], 7.24.
Under `CN1CCN(c2ccc(Nc3ncc4c(=O)n(-c5c(Cl)cccc5Cl)nc(-c5ccn(CCO)n5)c4n3)cc2)CC1` [Example 270, 6-(2,6-dichlorophenyl)-8-[1-(2-hydroxyethyl)-1H-pyrazol-3-yl]-2-{[4-(4-methylpiperazin-1-yl)phenyl]amino}pyrimido[4,5-d]pyridazin-5(6H)-one] stands over 9.00.
Under `CN1CCN(c2ccc(Nc3ncc4c(=O)n(-c5c(Cl)cccc5Cl)nc(-c5cnccn5)c4n3)cc2)CC1` [Example 271, 6-(2,6-dichlorophenyl)-2-{[4-(4-methylpiperazin-1-yl)phenyl]amino}-8-(pyrazin-2-yl)pyrimido[4,5-d]pyridazin-5(6H)-one] stands 9.40.
The molecule `CC(C)n1nc(-c2ccccn2)c2nc(Nc3ccc(N4CCN(C)CC4)cc3)ncc2c1=O` [Example 272, 2-{[4-(4-methylpiperazin-1-yl)phenyl]amino}-6-(propan-2-yl)-8-(pyridin-2-yl)pyrimido[4,5-d]pyridazin-5(6H)-one] gave a negative logarithm of the Ki (pKi) of 7.00.
Under `CC(C)n1nc(-c2ccncc2)c2nc(Nc3ccc(N4CCN(C)CC4)cc3)ncc2c1=O` [Example 273, 2-{[4-(4-methylpiperazin-1-yl)phenyl]amino}-6-(propan-2-yl)-8-(pyridin-4-yl)pyrimido[4,5-d]pyridazin-5(6H)-one] stands 7.96; under `CC(C)n1nc(-c2ccccn2)c2nc(Nc3ccc4c(c3)CN(C)CC43CC3)ncc2c1=O` [Example 274, 2-[(2′-methyl-2′,3′-dihydro-1′H-spiro[cyclopropane-1,4′-isoquinolin]-7′-yl)amino]-6-(propan-2-yl)-8-(pyridin-2-yl)pyrimido[4,5-d]pyridazin-5(6H)-one], 6.75; under `CC(C)n1nc(-c2ccncc2)c2nc(Nc3ccc4c(c3)CN(C)CC43CC3)ncc2c1=O` [Example 275, 2-[(2′-methyl-2′,3′-dihydro-1′H-spiro[cyclopropane-1,4′-isoquinolin]-7′-yl)amino]-6-(propan-2-yl)-8-(pyridin-4-yl)pyrimido[4,5-d]pyridazin-5(6H)-one], 8.49.
Under `CN1CCN(c2ccc(Nc3ncc4c(=O)n(-c5c(Cl)cccc5Cl)nc(-c5ccc(Br)cc5)c4n3)cc2)CC1` [Example 276, 8-(4-bromophenyl)-6-(2,6-dichlorophenyl)-2-{[4-(4-methylpiperazin-1-yl)phenyl]amino}pyrimido[4,5-d]pyridazin-5(6H)-one] stands 8.96.
`COC(=O)c1ccc(-c2nn(-c3c(Cl)cccc3Cl)c(=O)c3cnc(Nc4ccc(N5CCN(C)CC5)cc4)nc23)cc1` [Example 277, methyl 4-[6-(2,6-dichlorophenyl)-2-{[4-(4-methylpiperazin-1-yl)phenyl]amino}-5-oxo-5,6-dihydropyrimido[4,5-d]pyridazin-8-yl]benzoate] had a pKi of 8.92.
Molecule `CN1CCN(c2ccc(Nc3ncc4c(=O)n(-c5c(Cl)cccc5Cl)nc(C5CCC5)c4n3)cc2)CC1` [Example 278, 8-cyclobutyl-6-(2,6-dichlorophenyl)-2-{[4-(4-methylpiperazin-1-yl)phenyl]amino}pyrimido[4,5-d]pyridazin-5(6H)-one] gave a pKi of 9.08.
Turning to `O=c1c2cnc(Nc3ccc(N4CCNCC4)cc3)nc2c(C2CCC2)nn1-c1c(Cl)cccc1Cl` [Example 279, 8-cyclobutyl-6-(2,6-dichlorophenyl)-2-{[4-(piperazin-1-yl)phenyl]amino}pyrimido[4,5-d]pyridazin-5(6H)-one], the pKi is 8.92.
With `CN1Cc2cc(Nc3ncc4c(=O)n(-c5c(Cl)cccc5Cl)nc(C5CCC5)c4n3)ccc2C2(CC2)C1` [Example 280, 8-cyclobutyl-6-(2,6-dichlorophenyl)-2-[(2′-methyl-2′,3′-dihydro-1′H-spiro[cyclopropane-1,4′-isoquinolin]-7′-yl)amino]pyrimido[4,5-d]pyridazin-5(6H)-one], the pKi was 9.29.
Under `O=c1c2cnc(Nc3ccc4c(c3)CNCC43CC3)nc2c(C2CCC2)nn1-c1c(Cl)cccc1Cl` [Example 281, 8-cyclobutyl-6-(2,6-dichlorophenyl)-2-(2′,3′-dihydro-1′H-spiro[cyclopropane-1,4′-isoquinolin]-7′-ylamino)pyrimido[4,5-d]pyridazin-5(6H)-one] stands 9.28; under `CN1CCN(c2ccc(Nc3ncc4c(=O)n(C5CCC5)nc(-c5ccncc5)c4n3)cc2)CC1` [Example 282, 6-cyclobutyl-2-{[4-(4-methylpiperazin-1-yl)phenyl]amino}-8-(pyridin-4-yl)pyrimido[4,5-d]pyridazin-5(6H)-one], 7.24; under `CC1(C)CNCc2cc(Nc3ncc4c(=O)n(CCO)nc(-c5ccccn5)c4n3)ccc21` [Example 283, 2-[(4,4-dimethyl-1,2,3,4-tetrahydroisoquinolin-7-yl)amino]-6-(2-hydroxyethyl)-8-(pyridin-2-yl)pyrimido[4,5-d]pyridazin-5(6H)-one], 7.52.
Take `O=c1c2cnc(Nc3ccc(N4CCNCC4)cc3)nc2c(-c2ccccn2)nn1-c1c(Cl)cccc1Cl` [Example 284, 6-(2,6-dichlorophenyl)-2-{[4-(piperazin-1-yl)phenyl]amino}-8-(pyridin-2-yl)pyrimido[4,5-d]pyridazin-5(6H)-one]: the pKi was 9.44.
Under `O=c1c2cnc(Nc3ccc(N4CCNCC4)cc3)nc2c(-c2ccccn2)nn1-c1ccccn1` [Example 285, 2-{[4-(piperazin-1-yl)phenyl]amino}-6,8-di(pyridin-2-yl)pyrimido[4,5-d]pyridazin-5(6H)-one] stands 8.08; under `O=c1c2cnc(Nc3ccc(N4CCNCC4)cc3)nc2c(-c2ccccn2)nn1-c1cccc2ccccc12` [Example 286, 6-(naphthalen-1-yl)-2-{[4-(piperazin-1-yl)phenyl]amino}-8-(pyridin-2-yl)pyrimido[4,5-d]pyridazin-5(6H)-one], 8.03.
Under `CN1Cc2cc(Nc3ncc4c(=O)n(-c5ccccn5)nc(-c5ccccn5)c4n3)ccc2C(C)(C)C1` [Example 287] stands 7.96; under `CC(O)Cn1nc(-c2ccccn2)c2nc(Nc3ccc4c(c3)CN(C)CC4(C)C)ncc2c1=O` (centres unmarked) [Example 288, 6-(2-hydroxypropyl)-8-(pyridin-2-yl)-2-[(2,4,4-trimethyl-1,2,3,4-tetrahydroisoquinolin-7-yl)amino]pyrimido[4,5-d]pyridazin-5(6H)-one], 6.76; under `CC(O)Cn1nc(-c2ccccn2)c2nc(Nc3ccc(N4CCNCC4)cc3)ncc2c1=O` (centres unmarked) [Example 289, 6-(2-hydroxypropyl)-2-{[4-(piperazin-1-yl)phenyl]amino}-8-(pyridin-2-yl)pyrimido[4,5-d]pyridazin-5(6H)-one], 7.09.
Under `CN1CCN(c2ccc(Nc3ncc4c(=O)n(-c5c(Cl)cccc5Cl)nc(-c5ccc(C(=O)O)cc5)c4n3)cc2)CC1` [Example 290, 4-[6-(2,6-dichlorophenyl)-2-{[4-(4-methylpiperazin-1-yl)phenyl]amino}-5-oxo-5,6-dihydropyrimido[4,5-d]pyridazin-8-yl]benzoic acid] stands 9.48; under `CN1CCN(c2ccc(Nc3ncc4c(=O)n(-c5c(Cl)cccc5Cl)nc(-c5ccc(C(=O)N(C)C)cc5)c4n3)cc2)CC1` [Example 291, 4-[6-(2,6-dichlorophenyl)-2-{[4-(4-methylpiperazin-1-yl)phenyl]amino}-5-oxo-5,6-dihydropyrimido[4,5-d]pyridazin-8-yl]-N,N-dimethylbenzamide], 9.42.
Regarding `CN1CCN(c2ccc(Nc3ncc4c(=O)n(-c5c(Cl)cccc5Cl)nc(-c5ccc(C(=O)NC6CCC6)cc5)c4n3)cc2)CC1` [Example 292, N-cyclobutyl-4-[6-(2,6-dichlorophenyl)-2-{[4-(4-methylpiperazin-1-yl)phenyl]amino}-5-oxo-5,6-dihydropyrimido[4,5-d]pyridazin-8-yl]benzamide], the pKi was 9.32.
Under `CNC(=O)c1ccc(-c2nn(-c3c(Cl)cccc3Cl)c(=O)c3cnc(Nc4ccc(N5CCN(C)CC5)cc4)nc23)cc1` [Example 293, 4-[6-(2,6-dichlorophenyl)-2-{[4-(4-methylpiperazin-1-yl)phenyl]amino}-5-oxo-5,6-dihydropyrimido[4,5-d]pyridazin-8-yl]-N-methylbenzamide] stands 9.60.

The record behind these values is US8796289B2 (AbbVie Inc., priority 2011, dated 2014).
